Experiments:
[1] = system: A375 cells; assay: A375 proliferation crystal violet (CV) assay; assay type: cell-based; details: Homo sapiens, A-375, 96 h, 4 days, crystal violet staining
Description: Cultivated human A375 cells were plated out in a density of 1500 cells/measurement point in 200 μl of growth medium (DMEM/HAMS F12 (Biochrom; FG4815) with 10% FBS and 2 mM Glutamine) in a 96-well multititer plate. After 24 hours, the cells from a plate (zero plate) were stained with crystal violet (see below), while the medium in the other plates was replaced by fresh culture medium (200 μl) to which the test substances had been added in various concentrations (0 μM, and in the range 0.3 nM -30 μM; the final concentration of the solvent dimethyl sulphoxide was 0.5%). The cells were incubated in the presence of the test substances for 4 days. The cell proliferation was determined by staining the cells with crystal violet: the cells were fixed by adding 20 μl/measurement point of an 11% glutaraldehyde solution at room temperature for 15 min. After the fixed cells had been washed three times with water, the plates were dried at room temperature. […] The dye was dissolved by adding 100 μl/measurement point of a 10% acetic acid solution, and the extinction was determined by photometry at a wavelength of 595 nm. The percentage change in cell growth was calculated by normalizing the measurements to the extinctions of the zero point plate (=0%) and the extinction of the untreated (0 μM) cells (=100%). The IC50 values were determined by means of a 4-parameter fit using the company's own software.

[2] = target: T1, MEK1 (Homo sapiens, UniProt Q02750); assay: MEK1 activation kinase assay (Cot1/GST-MEK1 HTRF); assay type: biochemical; details: GST-MEK1 substrate, read-out: IC50, inhibition of MEK1 activation
T1 construct: purchased Millipore 14-420 (GST-MEK1); 14-703 (Cot1); host or cells: Cot1: insect cells (SF21)
Excerpt: The kinase Cot1 activates MEK1 by phosphorylating its activation loop. The inhibitory activity of compounds of the present invention on this activation of MEK1 was quantified employing the HTRF assay described in the following paragraphs.
N-terminally His6-tagged recombinant kinase domain of the human Cot1 (amino acids 30-397, purchased from Millipore, cat. no 14-703) expressed in insect cells (SF21) and purified by Ni-NTA affinity chromatography was used as kinase. As substrate for the kinase reaction the unactive C-terminally His6-tagged GST-MEK1 fusion protein (Millipore cat. no 14-420) was used.
For the assay 50 nl of a 100fold concentrated solution of the test compound in DMSO was pipetted into a black low volume 384well microtiter plate (Greiner Bio-One, Frickenhausen, Germany), 3 μl of a solution of 24 nM GST-MEK1 and 166.7 μM adenosine-tri-phosphate (ATP) in assay buffer [50 mM Tris/HCl pH 7.5, 10 mM MgCl2, 2 mM dithiothreitol, 0.01% (v/v) Igepal CA 630 (Sigma), 5 mM β-phospho-glycerol] were added and the mixture was incubated for 10 min at 22° C. to allow pre-binding of the test compounds to the GST-MEK1 before the start of the kinase reaction. Then the kinase reaction was started by the addition of 2 μl of a solution of Cot1 in assay buffer and the resulting mixture was incubated for a reaction time of 20 min at 22° C. The concentration of Cot1 in the assay was adjusted depending of the activity of the enzyme lot and was chosen appropriate to have the assay in the linear range, typical enzyme concentrations were in the range of about 2 ng/μl (final conc. in the 5 μl assay volume). The reaction was stopped by the addition of 5 μl of a solution of HTRF detection reagents (13 nM anti GST-XL665 [# 61GSTXLB, Fa. Cis Biointernational, Marcoule, France], 1 nM Eu-cryptate labelled anti-phospho-MEK 1/2 (Ser217/221) [#61P17KAZ, Fa. Cis Biointernational],) in an aqueous EDTA-solution (100 mM EDTA, 500 mM KF, 0.2% (w/v) bovine serum albumin in 100 mM HEPES/NaOH pH 7.5).
The resulting mixture was incubated 2 h at 22° C. to allow the binding of the phosphorylated GST-MEK1 to the anti-GST-XL665 and the Eu-cryptate labelled anti-phospho-MEK 1/2 antibody. Subsequently the amount of Ser217/Ser221-phosphorylated substrate was evaluated by measurement of the resonance energy transfer from the Eu-Cryptate-labelled anti-phospho-MEK antibody to the anti-GST-XL665. Therefore, the fluorescence emissions at 620 nm and 665 nm after excitation at 350 nm was measured in a HTRF reader, e.g. a Rubystar (BMG Labtechnologies, Offenburg, Germany) or a Viewlux (Perkin-Elmer). The ratio of the emissions at 665 nm and at […] was taken as the measure for the amount of phosphorylated substrate. […]

[3] = system: MEK1/2; details: cited from earlier work
[4] = system: colon cancer; details: oral treatment, mouse models; cited from earlier work

T1 sequence (Q02750 whole entry): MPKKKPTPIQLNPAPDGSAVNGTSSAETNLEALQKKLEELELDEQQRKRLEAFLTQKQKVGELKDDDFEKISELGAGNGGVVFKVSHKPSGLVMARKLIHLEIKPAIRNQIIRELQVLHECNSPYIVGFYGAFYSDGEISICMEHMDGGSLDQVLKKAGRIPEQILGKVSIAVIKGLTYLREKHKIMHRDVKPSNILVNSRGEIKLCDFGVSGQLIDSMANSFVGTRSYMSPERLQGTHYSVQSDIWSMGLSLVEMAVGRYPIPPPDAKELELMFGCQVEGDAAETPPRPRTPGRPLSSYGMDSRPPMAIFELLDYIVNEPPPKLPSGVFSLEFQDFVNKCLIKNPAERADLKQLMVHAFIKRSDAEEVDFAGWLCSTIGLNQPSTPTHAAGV

IC50 [1] [nM]	IC50 [2] [nM]	Compound	IC50 [3]	colon cancer growth in vivo [4]
< 100	< 300	CCS(=O)(=O)Nc1cccc(Oc2cc(F)cc(Nc3ccc(I)cc3F)c2C(N)=O)c1 [Example Compound 1.1, 2-(3-ethanesulfonylamino-phenoxy)-4-fluoro-6-(2-fluoro-4-iodo-phenylamino)-benzamide]		
< 100	< 300	CC(C)S(=O)(=O)Nc1cccc(Oc2cc(F)cc(Nc3ccc(I)cc3F)c2C(N)=O)c1 [Example Compound 1.2, 4-fluoro-2-(2-fluoro-4-iodo-phenylamino)-6-[3-(propane-2-sulfonylamino)-phenoxy]-benzamide]		
	< 300	CC(C)S(=O)(=O)Nc1cncc(Oc2cc(F)cc(Nc3ccc(I)cc3F)c2C(N)=O)c1 [Example Compound 2.1, 4-fluoro-2-(2-fluoro-4-iodo-phenylamino)-6-[5-(propane-2-sulfonylamino)-pyridin-3-yloxy]-benzamide]		
	< 300	CCS(=O)(=O)Nc1cccc(COc2cc(F)cc(Nc3ccc(I)cc3F)c2C(N)=O)c1 [Example Compound 3.1, 2-(3-ethanesulfonylamino-benzyloxy)-4-fluoro-6-(2-fluoro-4-iodo-phenylamino)-benzamide]		
		O=C(NOCC1CC1)c1ccc(F)c(F)c1Nc1ccc(I)cc1Cl [PD184352]	low nanomolar range	inhibit colon cancer growth in vivo in mouse models

Source: patent publication US8993630B2, “Substituted sulphonamido phenoxybenzamides” (Bayer Intellectual Property GmbH, priority 2008, dated 2015)
